Values after ≈ are worked out from the molar mass of the structure shown.

The conditions of the data set: buffer; pH 7.4; 200.0 µM.
What is called kinetic solubility is solubility judged after dilution from a stock solution rather than from solid. In the case of `CCOc1ccc(N2C(=O)CNC2=S)cc1`, the solubility (kinetic) is > 35.4 µg/mL.

`O=C(CSc1nc2ccccc2c(=O)n1-c1ccccc1F)NC1CC1`: the kinetic solubility is > 55.4 µg/mL. Regarding `CCS(=O)(=O)c1ncc(CO)n1CCc1ccccc1`, the kinetic solubility was > 44.2 µg/mL. In the case of `O=c1c2ccccc2[nH]c(=S)n1Cc1ccccc1`, the kinetic solubility is < 0.3 µg/mL. For the molecule `Cc1cc(C)c(S(=O)(=O)NC2CC3CCC2C3)c(C)c1` (stereo not drawn), the solubility (kinetic) was < 0.6 µg/mL. `C=CCOc1ccc(C=Nc2ccc(OC)cc2)c(O)c1` registered a solubility (kinetic) of 6.5 µg/mL (≈ 22.9 µM). For `CCS(=O)(=O)NCCNc1ccc([N+](=O)[O-])cc1`, the solubility (kinetic) is > 41 µg/mL. The same measure for `CCSc1nc(NCCN(C)C)c2c3c(sc2n1)COC(C)(CC)C3` (stereo not drawn): 46.4 µg/mL (≈ 122 µM); for `COc1ccc(OC)c(NC(=S)N2c3ccccc3CC2C)c1` (stereo not drawn): 7.6 µg/mL (≈ 23.1 µM). `O=S(=O)(c1ccccc1)N1CN(c2ccc(F)cc2F)c2nc3ccccc3nc21` had a solubility (kinetic) of 3.8 µg/mL (≈ 8.95 µM). `Cc1ccc(S(=O)(=O)N2CCCCC2)cc1NS(=O)(=O)c1ccccc1F`: the kinetic solubility was > 61.9 µg/mL. In turn, `COc1ccccc1CNC(=O)CC(C)c1ccccc1` (stereo not drawn) registered a kinetic solubility of 39.8 µg/mL (≈ 140 µM).

Take `CN(Cc1ccccc1)C(=O)CN1CCCC1=O`: the kinetic solubility was > 36.9 µg/mL. Regarding `O=C(CNC(=O)c1ccco1)NCC(=O)OCc1ccccc1Cl`, the solubility (kinetic) came out at 42.5 µg/mL (≈ 121 µM). As for `Cc1cc2[nH]cnc2c([N+](=O)[O-])c1C`, the solubility (kinetic) was > 28.7 µg/mL. In the case of `Cn1ccnc1SCC(=O)Nc1cccc([N+](=O)[O-])c1`, the solubility (kinetic) came out at 42.4 µg/mL (≈ 145 µM).

`Cc1ccc2c(c1)sc1ncc(NC(=O)c3ccc(F)cc3)c(=O)n12`: the solubility (kinetic) is < 0.3 µg/mL. Take `O=C(Nc1cccnc1)c1ccc2ccccc2c1O`: the kinetic solubility is 36.9 µg/mL (≈ 140 µM). `O=C(O)c1nn(-c2cccc(C(F)(F)F)c2)ccc1=O`: the solubility (kinetic) was > 42.6 µg/mL. Regarding `C=CCNc1nc(C(=O)OCC(=O)c2ccccc2)cs1`, the kinetic solubility turned out to be 4.5 µg/mL (≈ 14.9 µM). As for `COC(=O)c1c(C)[nH]c(C(=O)OCC(=O)NC(C)(C)C)c1C`, the solubility (kinetic) is > 46.6 µg/mL. With `O=C1CCC([N+](=O)[O-])C(c2ccccc2C(F)(F)F)N1` (stereo not drawn), the solubility (kinetic) is > 43.2 µg/mL. In the case of `COc1ccc(NC(=O)C2=C(C)NC(=O)NC2c2ccccc2[N+](=O)[O-])cc1` (stereo not drawn), the solubility (kinetic) came to 57.1 µg/mL (≈ 149 µM). With `Cc1ccc(C(=O)NC(=S)NCc2cccnc2)cc1C`, the kinetic solubility turned out to be 26.9 µg/mL (≈ 89.8 µM). Against the preceding molecule, the solubility kinetic is about 2.1-fold lower. The same measure for `CCN(CC)S(=O)(=O)N1CCC(C(=O)NCc2ccco2)CC1`: > 51.5 µg/mL. Regarding `CCOC(=O)NC(=O)COC(=O)c1cccc2ccccc12`, the kinetic solubility was > 45.2 µg/mL. With `O=[N+]([O-])c1ccc(N2CCN(C(=S)Nc3ccc(F)cc3)CC2)cc1`, the kinetic solubility was found to be 0.4 µg/mL (≈ 1.11 µM). The same measure for `Cc1cc(C)cc(C(=O)NCC(=O)OCC(=O)NC2CC2)c1`: > 45.7 µg/mL; for `CCOC(=O)N1CCN(C(=O)C2CCN(C(=O)Nc3ccccc3)CC2)CC1`: > 58.3 µg/mL. For the molecule `COc1ccc(CC(=O)NC(CC(=O)O)c2cccc([N+](=O)[O-])c2)cc1` (stereo not drawn), the kinetic solubility was > 53.8 µg/mL.

In the case of `CC(C(=O)O/N=C(\N)c1ccccn1)c1ccc([N+](=O)[O-])cc1` (stereo not drawn), the kinetic solubility is > 47.1 µg/mL. Turning to `O=C(O)CC1(CC(=O)NCc2ccccn2)CCCCC1`, the kinetic solubility was > 43.6 µg/mL. The same measure for `CN(c1ccc(C(=O)Nc2cccnc2)cc1)S(=O)(=O)c1ccccc1`: > 55.1 µg/mL; for `CCC(=O)Nc1c(-c2ccccc2)c(=O)c2ccccc2n1C`: 44.9 µg/mL (≈ 147 µM).

As to `COc1cccc(CNC(=O)c2csc3c2CCCC3)c1`, the solubility (kinetic) was 19.5 µg/mL (≈ 64.7 µM). The molecule `Cc1[nH]c2ccccc2c1CCNC(=O)CCC(=O)c1ccccc1` showed a kinetic solubility of 47.7 µg/mL (≈ 143 µM). Take `Cc1ccccc1NC(=O)NC(C)(C)CC(C)(C)C`: the solubility (kinetic) stood at 1.3 µg/mL (≈ 4.95 µM).

As to `CN(C)C(=O)C12CCC(C)(C(=O)C1Br)C2(C)C` (stereo not drawn), the solubility (kinetic) is > 45.3 µg/mL. Turning to `Cc1ccc(C(=O)NCCc2ccc(F)cc2)s1`, the solubility (kinetic) worked out at 5.6 µg/mL (≈ 21.3 µM). With `Cc1cccc(Nc2ccccc2C(=O)O)c1C`, the solubility (kinetic) is > 36.2 µg/mL. For `CCc1ccccc1OCC(=O)NCC1COc2ccccc2O1` (stereo not drawn), the kinetic solubility was 14.9 µg/mL (≈ 45.5 µM). The same measure for `CCOC(=O)C1=C(C)N(C)C(=O)NC1c1c(O)ccc2ccccc12` (stereo not drawn): > 51.1 µg/mL; for `CC1CCN(C(=O)c2ccc(-c3ccccc3Cl)o2)CC1`: 7.3 µg/mL (≈ 24 µM); for `Cc1ccc(OCC(=O)N2CCN(C(=O)c3ccncc3)CC2)cc1`: > 50.9 µg/mL.

In the case of `CCOC(=O)Cc1csc(NC(=O)/C=C/c2ccccc2Cl)n1`, the solubility (kinetic) was < 0.4 µg/mL. The same measure for `COc1cc(OC)c(C(=O)O/N=C(\N)c2cccc(C)c2)cc1OC`: > 51.7 µg/mL; for `COC(=O)c1ccc(OCC2NCCc3cc(OC)c(OC)cc32)cc1` (stereo not drawn): > 53.6 µg/mL; for `Cc1ccc(NC(=O)Cn2ccc(=O)[nH]c2=O)cc1`: > 38.9 µg/mL. In the case of `O=C(/C=C/c1ccc([N+](=O)[O-])s1)N1CCCCC1`, the solubility (kinetic) was > 39.9 µg/mL. The same measure for `Cc1nc(N)sc1C(=O)OCC(C)C`: > 32.1 µg/mL; for `CN(C)CC#CCC(O)(c1ccccc1)c1ccccc1`: > 41.9 µg/mL.

`O=C(CNC(=O)C1CCCCC1)OCC(=O)c1ccc(F)cc1`: the kinetic solubility was > 48.2 µg/mL. With `CN1CCN2c3ccccc3CC3(C(=O)N(C)C(=O)N(C)C3=O)C2C1` (stereo not drawn), the kinetic solubility was > 51.4 µg/mL. Molecule `COc1ccc(OC)c(/C=C/C(=O)Nc2ccc(OC)nc2)c1` returned a solubility (kinetic) of 4.7 µg/mL (≈ 15 µM). With `C/C=C/C(=O)N1c2ccc(C)cc2C(C)=CC1(C)C`, the solubility (kinetic) was determined as 1.2 µg/mL (≈ 4.7 µM).

In turn, `O=C1CSC(c2ccccc2)N1c1ccc([N+](=O)[O-])cc1` (stereo not drawn) yielded a solubility (kinetic) of 33.4 µg/mL (≈ 111 µM). The same measure for `CC(=O)N1CCCC(C(=O)c2ccc(Oc3ccccc3)cc2)C1` (stereo not drawn): > 48.5 µg/mL; for `Cc1nc2ccccc2n1C1CCN(C(=O)Nc2ccccc2)CC1`: > 50.2 µg/mL; for `S=C(NCc1ccc2c(c1)OCO2)NCc1ccco1`: > 43.6 µg/mL. The same measure for `Cc1cc(/C=C2\SC(=O)NC2=O)c(C)n1-c1ccc(N(C)C)cc1`: < 0.2 µg/mL. On to `CC(C)Cc1ccc(/C=C/C(=O)N2CCOCC2)cc1`, for which the kinetic solubility is > 41 µg/mL.

Take `Cc1cccc(NC(=O)/C(C#N)=C/c2ccccc2O)n1`: the solubility (kinetic) amounted to 20.9 µg/mL (≈ 74.8 µM). For `COc1ccccc1NC(=S)N1CCCCCC1`, the kinetic solubility is > 39.7 µg/mL. The molecule `CC(=O)Nc1ccc2c(COC(=O)[C@@H](NS(=O)(=O)c3ccc(C)cc3)C(C)C)cc(=O)oc2c1` returned a kinetic solubility of 8.6 µg/mL (≈ 17.7 µM).

Regarding `Oc1ccc(-c2cn3ccccc3n2)cc1O`, the solubility (kinetic) is 24 µg/mL (≈ 106 µM). This solubility kinetic lies about 2.8-fold higher than the previous one.

`O=C(Nc1nccs1)c1ccc(COc2ccccc2Cl)o1` registered a solubility (kinetic) of 0.9 µg/mL (≈ 2.69 µM). With `O=C(CNC(=O)c1ccncc1)N/N=C/c1ccc(Br)cc1`, the kinetic solubility was > 54.2 µg/mL.

`COc1ccc(NC(=O)Nc2c[nH]c(=O)[nH]c2=O)cc1OC` returned a solubility (kinetic) of 44.8 µg/mL (≈ 146 µM). The same measure for `Cc1ccc(C(=O)NN2CCOCC2)cc1[N+](=O)[O-]`: > 39.8 µg/mL; for `O=C(/C=C\c1ccc2c(c1)OCO2)CC1(O)C(=O)Nc2ccccc21` (stereo not drawn): 24.6 µg/mL (≈ 72.9 µM); for `CCCN1CCN(C(=S)Nc2sc(CC)cc2C(=O)OC)CC1`: 0.6 µg/mL (≈ 1.69 µM). The same measure for `O=C(Nc1ccc(F)cc1)c1ccc(CSc2ccc(Cl)cc2)o1`: 4.3 µg/mL (≈ 11.9 µM); for `CCOC(=O)CCNC(=O)CCNC(=O)C(c1ccccc1)c1ccccc1`: > 57.4 µg/mL; for `O=C(COC(=O)c1ccc([N+](=O)[O-])o1)Nc1ncc(Cl)cc1Cl`: > 54 µg/mL.

Take `Cn1cccc1/C=C(\C#N)c1ccccc1`: the solubility (kinetic) turned out to be 15.4 µg/mL (≈ 73.9 µM). Turning to `Nc1ccc(S(=O)(=O)NC2=NCCCCC2)cc1`, the solubility (kinetic) was > 40.1 µg/mL. `CC(=O)Nc1scc(C)c1-c1nc2ccccc2s1`: the kinetic solubility was < 0.3 µg/mL. In turn, `Cc1ccc(N2CC(C(=O)Nc3cccnc3)CC2=O)cc1C` (stereo not drawn) returned a kinetic solubility of 31.3 µg/mL (≈ 101 µM). `CN(CC(=O)Nc1ccccc1Cl)C(=O)c1ccc(Cl)c(S(=O)(=O)N2CCCCCC2)c1` displayed a solubility (kinetic) of 21.6 µg/mL (≈ 43.3 µM). The same measure for `CC(=O)N(Nc1ccccc1)c1ccccc1`: > 33.9 µg/mL; for `N#Cc1cccc(C#N)c1Oc1ccc(S(=O)(=O)Nc2ccccc2)cc1`: 18.4 µg/mL (≈ 49 µM); for `c1ccc(-c2ccc(CN3CCSCC3)cc2)cc1`: 1.7 µg/mL (≈ 6.31 µM). Take `O=C(Nc1nc2ccsc2c(=O)s1)c1ccc(F)cc1`: the kinetic solubility was < 0.3 µg/mL. As for `Nc1ncnc2c1ncn2C1OC(CO)C(O)C1O` (stereo not drawn), the solubility (kinetic) is > 40.1 µg/mL. In turn, `CCN(C(=O)COC(=O)/C=C/c1ccc(F)cc1)C1CCCCC1` registered a solubility (kinetic) of 42.8 µg/mL (≈ 128 µM). Take `CCOC(=O)C1(CC2CC2)CCN(Cc2cnc(N(C)C)s2)CC1`: the kinetic solubility stood at 46.1 µg/mL (≈ 131 µM). The same measure for `Cn1c(=O)cc(Nc2ccc(Cl)cc2)[nH]c1=O`: 8.7 µg/mL (≈ 34.6 µM); for `CCC(C)c1ccccc1NC(=O)c1cc(C)no1` (stereo not drawn): > 38.7 µg/mL.

In the case of `CC(C)n1c(SCC(=O)NC2CC2)nnc1-c1ccco1`, the kinetic solubility is > 46 µg/mL. In turn, `Cc1cccc(C(=O)OCC(=O)c2csc(N3CCCCC3)n2)c1[N+](=O)[O-]` displayed a kinetic solubility of 2.8 µg/mL (≈ 7.19 µM). The molecule `Nc1cc(C(F)(F)F)ccc1NCCc1ccccn1` came in with a solubility (kinetic) of 36.8 µg/mL (≈ 131 µM). This solubility kinetic lies about 13-fold higher than the previous one. The same measure for `CCOc1cccc(N2C(=O)/C(=C/c3ccco3)C(=O)NC2=S)c1`: 12.3 µg/mL (≈ 35.9 µM); for `CCC(NC(=O)c1ccccc1Br)c1ccccc1` (stereo not drawn): > 47.7 µg/mL; for `NC(=O)c1cccc(C(N)=O)n1`: > 24.8 µg/mL.

With `COC(=O)c1ccc(N2CCS(=O)(=O)CC2)cc1`, the kinetic solubility was > 40.4 µg/mL. On to `Cc1ccccc1C(=O)Nc1ccc(N2CCN(C)CC2)nc1`, for which the solubility (kinetic) is > 46.6 µg/mL. The same measure for `CC(C)(C)C(=O)Oc1cccc(Nc2ncnc3ccccc23)c1`: 34.1 µg/mL (≈ 106 µM); for `Clc1ccccc1-c1nc(-c2ccc(Br)o2)no1`: < 0.3 µg/mL. Turning to `CN(CC(=O)NC1CC1)S(=O)(=O)c1cc(Cl)ccc1Cl`, the solubility (kinetic) is > 50.6 µg/mL. In the case of `COc1cccc2cc(C(=O)NC(C)c3ccccc3)c(=O)oc12` (stereo not drawn), the solubility (kinetic) was < 0.7 µg/mL. `Cc1cccc(C(=O)N2CCCC(Nc3ccc(C)c(C)c3)C2)n1` (stereo not drawn) returned a kinetic solubility of 42.1 µg/mL (≈ 130 µM). For the molecule `O=C(c1ccc([N+](=O)[O-])cc1Cl)N1CCN(c2ccccn2)CC1`, the kinetic solubility was > 52 µg/mL. Consider `COc1ccc(S(=O)(=O)N(C)CC(=O)NC2CC2)cc1OC`, for which the solubility (kinetic) is > 49.3 µg/mL.

Values taken from PubChem BioAssay AID1996.
